What was measured:
skin-specific T cells = assay: FACS of T cells using skin immune cells and skin lesions of atopic dermatitis patients; format: cell-based, human
Description: To verify the effect of the candidate drug on skin-specific T cells in human skin tissue, a single suspension was prepared using the skin from an atopic dermatitis patient. T cells were stained using anti-CD3, anti-CD4, anti-CD8 and anti-CD45 antibodies, and flow cytometry was performed on skin-specific T cells using anti-CD69 and anti-CD103 antibodies, thereby observing the changes in number and distribution of skin-specific T cells by the application of the drug.

[1] = tested on: skin tissue of NC/Nga mice; assay: H&E staining of skin tissue of HDM-treated NC/Nga mice (eosinophil count, epidermal thickness); format: in vivo, mouse
Description: Data are expressed as mean±standard deviation (SD). **P<0.01, *P<0.05.
(§1) Atopic skin lesions were induced in NC/Nga mice by treatment with HDM three times a week until 4 weeks after the start of the experiment, and then each mouse was treated with ipatasertib and/or 0.1% dexamethasone (200 μL) three times a week for another four weeks (FIG. 3). Control groups consisted of a non-HDM-treated group (3 animals), a HDM-treated group (3 animals), and a HDM-and 0.1% dexamethasone-treated group (3 animals, positive control group), and experimental groups were administered ipatasertib after HDM treatment. Then, in order to check changes in skin-specific T cells in each animal, single suspensions were prepared using the spleen, skin, and lymph nodes, and T-cells were stained using anti-CD3, anti-CD4, anti-CD8, and CD45 antibodies. Flow cytometry was performed on skin-specific T cells using anti-CD69 and anti-CD103 antibodies, thereby observing the changes in number and distribution of skin-specific T cells by the application of the drug.
Patients with allergic diseases often have a blood eosinophil count that increased by more than 5%, and based on this fact, eosinophils were counted by hematoxylin and eosin (H&E) staining. […] In addition, when atopic dermatitis occurs, the skin thickens due to an excessive inflammatory response.

T cells in the spleen = assay: FACS of T cell fractions in spleen of atopic dermatitis mouse model; format: in vivo
Description: as §1

normal skin tissue = assay: MTT assay, cell viability in normal skin tissue; format: cell-based; conditions: for cell viability: normal skin tissue
Description: To determine the final concentration of the drug ipatasertib, normal skin tissue was seeded in a 96-well plate, and treated with ipatasertib at varying concentrations of 1 μM, 10 μM, 50 μM, 100 μM, and 200 μM. The safety and toxicity of the drug to the normal skin tissue were evaluated by measuring the absorbance at 540 nm.

[2] = tested on: human T cells in the skin of the avatar mouse; assay: Human T cell fractions in the skin of the avatar mouse; format: in vivo
Description: (§2) PBMCs were obtained from blood samples isolated from atopic dermatitis patients, and then CD3+ T cells, which are pathogenic cells, and CD3-depleted PBMCs, which are antigen-presenting cells, were separated therefrom. Human PBMC cells obtained by this method were injected into an immunodeficient NSG mouse by two different routes of administration. That is, avatar mice were prepared by injecting CD3+ T cells, which are pathogenic cells, through intravenous injection, and CD3-depleted PBMCs through intradermal injection. After the hair on the back of the prepared avatar mouse was shaved, dead skin cells were removed using 3M film once every three days, and 100 mg of house dust mite ointment was applied to the back of the mouse for three weeks. Then, from week 4, the mouse was treated with house dust mite ointment plus ipatasertib to evaluate the therapeutic effect of ipatasertib (FIG. 14A).

[3] = tested on: skin-specific T cells in the skin; assay: FACS of skin-specific T cell fractions in skin of atopic dermatitis mouse model; format: in vivo
Description: as §1

[4] = tested on: humanized avatar mouse model; assay: Therapeutic effect in humanized avatar mouse model with HDM-induced atopic dermatitis; format: in vivo; conditions: applied to the back three times a week for one week after three weeks HDM
Description: as §2

DF-specific IgE = assay: Serum total DF-specific IgE by ELISA in atopic dermatitis mouse model; format: in vivo; conditions: 100 μM
Description: as §1
(§3) Blood was collected from the mouse heart, and then serum total DF-specific IgE (ng/mL) (A450) was measured in a 96-well plate (Corning Inc., Corning, NY, USA) using the ELISA MAX™ Delux Set (BioLegend, San Diego, CA, USA) kit.
House dust mites are a common cause of allergy, and based on this fact, DF-specific IgE was measured.

[5] = tested on: NC/Nga mice with induced atopic dermatitis; assay: HDM-induced atopic dermatitis in NC/Nga mice: skin lesions and SCORAD index; format: in vivo, mouse
Description: NC/Nga mice showing clinical and histological phenotypes similar to atopic dermatitis were used. To prepare atopic dermatitis animal models, atopic skin lesions were induced by treating mice with house dust mites (HDM), a representative trigger/aggravator of atopic dermatitis (FIG. 2).
as §1
To evaluate the effect of ipatasertib administration in NC/Nga mice with induced atopic dermatitis, atopic dermatitis was induced by applying house dust mite (HDM) ointment to the mouse's back three times a week for 4 weeks, and then ipatasertib drug was applied to the mouse's back three times a week for another 4 weeks. […] Each score was obtained by the Wilcoxon signed-rank test, and P<0.05 was considered statistically significant. Three mice per group were tested.

[6] = tested on: T cells in skin-draining lymph nodes; assay: FACS of T cell fractions in skin-draining lymph nodes of atopic dermatitis mouse model; format: in vivo
Description: as §1

serum total IgE = assay: Serum total IgE by ELISA in atopic dermatitis mouse model; format: in vivo
Description: as §1, §3
The changes in serum total IgE levels in atopic dermatitis mouse models by ipatasertib treatment were measured. […]

[7] = 100 μM, compared to 0.1% dexamethasone group

CC(C)NC[C@@H](C(=O)N1CCN(c2ncnc3c2[C@H](C)C[C@H]3O)CC1)c1ccc(Cl)cc1 [ipatasertib]
proportion of skin-specific T cells (skin-specific T cells; 50 μM): significantly decreased
proportion of skin-specific T cells (skin-specific T cells; 100 μM): significantly decreased
eosinophil count [1]: decreased depending on the ipatasertib concentration
epidermal thickness [1]: decreased as the concentration of ipatasertib increased
CD69+ T cells and CD103+ T cells (T cells in the spleen): decreased statistically significantly
proportion of CD3+ and CD4+ T cells (T cells in the spleen): decreased in a dose-dependent manner
cell viability (normal skin tissue; 50 μM): ≥ 90%
cell viability (normal skin tissue; 100 μM): ≥ 90%
toxicity in normal skin tissue (normal skin tissue; up to 100 μM): no significant toxicity
proportion of human CD3 T cells ([2]; 100 μM, compared to control group): significantly decreased compared to that in the control group
proportions of human CD8 and CD4 cells ([2]; drug-treated group): significantly lower
proportions of CD3+, CD4+, CD69+, and CD103+ skin-specific T cells ([3]; 50 μM, skin): significantly decreased
proportions of CD3+, CD4+, CD69+, and CD103+ skin-specific T cells ([3]; 100 μM, skin): significantly decreased
CD69+ T cells and CD103+ T cells ([3]; skin tissues of the ipatasertib groups): statistically significantly decreased
proportions of skin-specific T cells ([3]; skin, compared to 0.1% dexamethasone-treated group): significantly decreased even compared to that in the 0.1% dexamethasone-treated group
therapeutic effect against atopic dermatitis [4]: clinically significant therapeutic effect
total DF-specific IgE level (DF-specific IgE): significantly decreased
total DF-specific IgE level (DF-specific IgE; compared to 0.1% dexamethasone group): significantly decreased even compared to that in the 0.1% dexamethasone group
recovery of skin lesions ([5]; 100 μM, applied to the back three times a week for 4 weeks): most notable recovery
scoring atopic dermatitis (SCORAD) index [5, 7]: lower SCORAD index than the 0.1% dexamethasone-administered group
therapeutic effect on atopic dermatitis skin lesions ([5]; applied to the back three times a week for 4 weeks after 4 weeks HDM): significant therapeutic effect was observed in a drug concentration-dependent manner
wounds, dryness, and shedding ([5]; compared to positive control 0.1% dexamethasone): significantly reduced compared to the positive control group administered 0.1% dexamethasone
scoring atopic dermatitis (SCORAD) index ([5]; ipatasertib-administered groups, three mice per group): significantly decreased
fraction of T cells expressing CD69 among CD3+ CD4+ T cells [6]: tended to decrease
fraction of CD3+ CD4+ CD103+ T cells ([6]; 100 μM): statistically significantly lowest
proportion of CD3+ T cells ([6]; 100 μM): lowest proportion of CD3+ T cells
decrease in the total serum IgE level (serum total IgE; [7]): significantly greater
serum total IgE level (serum total IgE; ELISA, ipatasertib groups up to 100 μM): decreased in a dose-dependent manner

Source: patent US20240366607A1, “COMPOSITION FOR PREVENTION OR TREATMENT OF ATOPIC DERMATITIS COMPRISING AKT SIGNALING PATHWAY INHIBITOR AS ACTIVE INGREDIENT” (priority 2021, published 2024)
